From ChEMBL document CHEMBL4480398, “1,2,4-Triazolo[1,5-a]pyrimidines in drug design” (Eur J Med Chem, 2019)
≈ marks a conversion by molar mass, not a printed value.

What was measured:
[1] = target: Fatty acid-binding protein, adipocyte (Homo sapiens, UniProt P15090); assay: Binding affinity to recombinant FABP4 (unknown origin) expressed in Escherichia coli by sypro orange dye-based TdF assay
[2] = Protein binding in human plasma by ultracentrifugation method; assay type: ADME, cell-free
[3] = Intrinsic clearance in mouse liver microsomes assessed per mg protein by LC-MS analysis; assay type: ADME, Microsome; conditions: read-out: CLH
[4] = Inhibition of Plasmodium falciparum DHODH expressed in Escherichia coli by DCIP staining-based spectrophotometric analysis
[5] = Aqueous solubility of compound; assay type: physicochemical; conditions: buffer
[6] = Intrinsic clearance in human liver microsomes assessed per mg protein by LC-MS analysis; assay type: ADME, Microsome; conditions: read-out: CLH
[7] = Oral bioavailability in mouse at 20 mg/kg administered as single dose; assay type: ADME, organism-based; conditions: in vivo
[8] = test system: Leishmania donovani; assay: Antileishmanial activity against Leishmania donovani MHOM/SD/62/1S-CL2D axenic amastigote after 48 hrs by CellTiter-Glo luminescent cell viability assay; assay type: functional, organism-based
[9] = test system: Trypanosoma cruzi; assay: Antitrypanosomal activity against Trypanosoma cruzi Tulahuen amastigotes expressing beta-galactosidase infected in mouse NIH3T3 cells after 6 days; assay type: functional, organism-based; conditions: NIH3T3, 144 h
[10] = test system: Trypanosoma brucei; assay: Antitrypanosomal activity against Trypanosoma brucei Lister 427 bloodstream form after 48 hrs by CellTiter-Glo luminescent cell viability assay; assay type: functional, organism-based; conditions: Lister 427, 48 h
[11] = target: Dihydroorotate dehydrogenase (quinone), mitochondrial (Homo sapiens, UniProt Q02127); assay: Inhibition of human DHODH expressed in Escherichia coli by DCIP staining-based spectrophotometric analysis
[12] = Lipophilicity, log D of the compound at pH 7.4 by shake flask method; assay type: physicochemical; conditions: buffer
[13] = Cytotoxicity against mouse NIH/3T3 cells after 5 days by CellTiter-Glo luminescent cell viability assay; assay type: cell-based, NIH3T3
[14] = Cytotoxicity against mouse primary peritoneal macrophages; assay type: cell-based, Peritoneal macrophage
[15] = Dissociation constant, pKa of compound; assay type: physicochemical

Chain of Fatty acid-binding protein, adipocyte (P15090 whole entry): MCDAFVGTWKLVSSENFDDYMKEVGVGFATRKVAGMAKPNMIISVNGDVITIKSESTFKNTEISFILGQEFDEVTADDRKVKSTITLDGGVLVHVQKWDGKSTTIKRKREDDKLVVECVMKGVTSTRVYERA
Chain of Dihydroorotate dehydrogenase (quinone), mitochondrial (Q02127 whole entry): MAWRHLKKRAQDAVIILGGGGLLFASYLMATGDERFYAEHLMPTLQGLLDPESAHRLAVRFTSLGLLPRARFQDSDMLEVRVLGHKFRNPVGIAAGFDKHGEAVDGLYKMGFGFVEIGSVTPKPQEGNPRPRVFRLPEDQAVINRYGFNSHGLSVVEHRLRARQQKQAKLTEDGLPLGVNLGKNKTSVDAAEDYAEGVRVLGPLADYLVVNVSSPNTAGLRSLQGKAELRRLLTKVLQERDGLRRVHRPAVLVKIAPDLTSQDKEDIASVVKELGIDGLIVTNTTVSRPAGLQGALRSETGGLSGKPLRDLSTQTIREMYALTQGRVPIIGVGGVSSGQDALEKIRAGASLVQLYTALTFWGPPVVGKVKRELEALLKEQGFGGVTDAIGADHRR

`O=c1cc(CNc2cccc(Cl)c2C2CC2)[nH]c2nc(-c3ccccc3)nn12` gave a Kd [1] of 20 nM.

For `Cc1cc(Nc2ccc(S(F)(F)(F)(F)F)cc2)n2nc(C(C)(F)F)nc2n1` [DSM-265], the PPB [2] was 90.4%, the microsomal CLint [3] was 10.1 µL/min/mg and the IC50 [4] was 33 nM. It also gave a solubility [5] of 70 to 140 µM (≈ 29.1 to 58.1 µg/mL) and a microsomal CLint [6] of less than 5 µL/min/mg.

In the case of `COc1ccc(Cl)cc1NCc1cc(=O)n2nc(-c3ccccc3)nc2[nH]1`, the Kd [1] is reported as 860 nM.

Work on `Cc1nc(C)c(C(=O)Nc2ccc(F)c(-c3nc4ncc(-c5ccccc5)cn4n3)c2)o1` yielded a bioavailability [7] of less than 34%, an EC50 [8] of 71 nM and an EC50 [9] of 16 nM. It also gave an EC50 [10] of 22 nM.

`Cc1cc(Nc2ccc(C(F)(F)F)nc2)n2nc(C(C)(F)F)nc2n1` gave an IC50 [11] greater than 100000 nM, a logD [12] of 2.5 and a fraction unbound ([2]; read-out: PPB) of 0.5. The microsomal CLint [3] was 5.1 µL/min/mg, the IC50 [4] was 14 nM and the solubility [5] was greater than 100 µM.

Compound `Cc1cc(Nc2ccc3ccccc3c2)n2ncnc2n1` has an IC50 [11] greater than 200000 nM and a solubility [5] of 45 to 90 µM (≈ 12.4 to 24.8 µg/mL).

Compound `CC(C)OC(=O)Nc1cnc2nc(-c3cc(NC(=O)c4ccco4)ccc3Cl)nn2c1` has a CC50 at 120 h [13] of 9000 nM, an EC50 [8] of 350 nM and a CC50 [14] of 14000 nM. For the same compound, the EC50 [9] was 55 nM and the EC50 [10] was 79 nM.

With `Cc1cc(Nc2cc(F)c(C(F)(F)F)c(F)c2)n2ncnc2n1` the IC50 [11] was greater than 30000 nM, the microsomal CLint [3] was less than 6 µL/min/mg and the IC50 [4] was 190 nM. It also gave a solubility [5] of 9 to 18 µM (≈ 2.96 to 5.93 µg/mL) and a microsomal CLint [6] of less than 5 µL/min/mg.

In the case of `Cc1nc(C)c(C(=O)Nc2ccc(F)c(-c3nc4ncc(-c5ccccn5)cn4n3)c2)o1`, the bioavailability [7] is reported as less than 34% and the EC50 [10] is reported as 70 nM.

With `Cc1c(Cl)cccc1NCc1cc(=O)n2nc(-c3ccccc3)nc2[nH]1` the pKa [15] was 4.6 and the Kd [1] was 10 nM.

Work on `O=C(Nc1ccc(Cl)c(-c2nc3ncccc3o2)c1)c1ccco1` yielded an EC50 [8] of 7300 nM, a CC50 [14] greater than 50000 nM and an EC50 [9] of 75 nM. It also gave an EC50 [10] of 150000 nM.
